Laboratory results from patent publication US20190177440A1, “COMPOUND OR SALT THEREOF, ANTI-INFLAMMATORY AGENT, ANTI-CANCER AGENT AGAINST LUNG CANCER, METHOD OF PRODUCING COMPOUND OR SALTS THEREOF, METHOD OF TREATING INFLAMMATORY DISEASES AND METHOD OF TREATING LUNG CANCER” (TFK CO., LTD., priority 2016, published 2019).

Assays:
human TLR4 = biological target: T1, human TLR4 (Homo sapiens, UniProt O00206+Q9Y6Y9); assay: IL-8 production in Human Embryonic Kidney cells transfected with human TLR4 gene (Example 3); type: cell-based; conditions: HEK cells with human TLR4 gene; final 0.1-10,000 ng/mL; 24 hours; ELISA; FIG. 3
T1 construct: host or cells: Human Embryonic Kidney cells
T1 sequence (O00206 24-839): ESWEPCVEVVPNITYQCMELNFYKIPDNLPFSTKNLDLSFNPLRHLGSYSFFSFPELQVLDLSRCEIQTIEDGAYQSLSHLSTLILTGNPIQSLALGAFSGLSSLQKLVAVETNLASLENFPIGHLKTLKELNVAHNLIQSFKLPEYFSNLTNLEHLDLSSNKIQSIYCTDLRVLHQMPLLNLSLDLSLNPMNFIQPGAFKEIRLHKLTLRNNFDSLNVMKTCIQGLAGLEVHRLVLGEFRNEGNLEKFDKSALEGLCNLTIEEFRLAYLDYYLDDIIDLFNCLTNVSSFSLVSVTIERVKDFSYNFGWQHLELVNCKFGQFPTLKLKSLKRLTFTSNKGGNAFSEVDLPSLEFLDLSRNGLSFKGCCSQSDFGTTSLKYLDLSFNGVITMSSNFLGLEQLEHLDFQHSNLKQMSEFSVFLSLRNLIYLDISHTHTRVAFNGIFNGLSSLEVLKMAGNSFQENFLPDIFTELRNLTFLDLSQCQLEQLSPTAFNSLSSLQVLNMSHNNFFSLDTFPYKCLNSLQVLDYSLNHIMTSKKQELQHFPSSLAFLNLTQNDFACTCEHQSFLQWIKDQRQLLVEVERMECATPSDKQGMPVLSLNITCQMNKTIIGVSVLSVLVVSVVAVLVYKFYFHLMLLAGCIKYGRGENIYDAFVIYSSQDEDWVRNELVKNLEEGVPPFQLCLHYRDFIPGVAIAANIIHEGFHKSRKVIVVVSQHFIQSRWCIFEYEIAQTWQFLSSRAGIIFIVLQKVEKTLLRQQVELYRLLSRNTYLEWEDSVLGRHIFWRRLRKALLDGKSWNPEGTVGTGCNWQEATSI
T1 sequence (Q9Y6Y9 17-160 limits assumed): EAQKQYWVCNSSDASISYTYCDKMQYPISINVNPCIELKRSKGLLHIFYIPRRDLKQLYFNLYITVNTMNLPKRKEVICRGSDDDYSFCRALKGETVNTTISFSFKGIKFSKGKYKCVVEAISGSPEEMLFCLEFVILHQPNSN
Protocol: The purified product obtained in Example 1 (the mixture of the compound represented by Formula (A1), the compound represented by Formula (B1), the compound represented by Formula (A2), and the compound represented by Formula (B2)) was dissolved in water for injection to a concentration of 2 mg/mL and stored at 4° C., and the solution was heated at 37° C. for 5 minutes and sonicated at 37° C. for 1 minute. 10 μL of the sonicated solution was added to 990 μL of the culture solution having the following composition to thoroughly mix, and a solution having a concentration of 20,000 ng/mL was prepared, which was serially diluted using the culture solution to obtain six test solutions having concentrations of 2,000 ng/mL, 200 ng/mL, 20 ng/mL, 2 ng/mL, and 0.2 ng/mL. Since the six test solutions are diluted twice when added to the cells, the final concentrations of the purified products are 10,000 ng/mL, 1,000 ng/mL, 100 ng/mL, 10 ng/mL, 1 ng/mL, and 0.1 ng/mL, respectively.
The culture medium was added to Human Embryonic Kidney cells (manufactured by InvivoGen) into which human TLR4 gene had been transfected, and solution were prepared in which the concentration of the cell was 4×10^5 cells/mL. The solution was seeded in 96-well flat-bottomed plates in 100 μL portions, i.e., 4×10^4 cells/100 μL/well. After seeding, the culture was cultured at 37° C. in a 5% CO2 for 24 hours, then the culture supernatant was removed, and 100 μL of the above-described culture medium was added to each well. Next, 100 μL of the test solution was added to each well. After adding the test solution, the culture was incubated at 37° C. in a 5% CO2 for 24 hours.
Culture supernatants from the wells were collected and the concentrations of Interleukin-8 (IL-8) were measured using Human IL-8 ELISA MAX (registered trademark) Standard (Biolegend).

NF-κB = assay: Nuclear NF-κB level in RAW264.7 mouse macrophage cells (Example 4); type: cell-based; conditions: final 1 and 100 ng/mL, 24 hours pre-treatment, no LPSp, FIG. 4
Protocol: In the same manner as “(1) Preparation of test solution” in Example 3, a solution having a concentration of the purified product of 20,000 ng/mL was prepared, and the solution was serially diluted with a culture solution having the following composition, thereby obtaining two test solutions having 100 ng/mL and 10,000 ng/mL. Since the two test solutions are diluted 100-fold when added to the cells, the final concentrations of the purified product are 1 ng/mL and 100 ng/mL, respectively.
The culture medium was added to mouse macrophage cells (RAW264.7, ATCC) to prepare solutions at concentrations of 1.067×10^6 cells/mL. The solutions were seeded in 6 well plates in 3 mL portions, i.e., 3.2×10^6 cells/3 mL/well. After seeding, the test solution was incubated at 37° C. in a 5% CO2 for 2 hours, and 30 μL of the test solution was added to each well. After adding the test solution, the test solution was incubated at 37° C. in a 5% CO2 for 24 hours. The culture supernatant of each of the wells was then collected in a 15 mL tube. Then, 1 mL of the fresh culture solution was added to each of the wells, and after spreading over the entire well, the operation of collecting the culture solution into the 15 mL tube was repeated twice. Thereafter, the culture solution collected in the 15 mL tube was centrifuged at 1,000 rpm for 3 minutes, the supernatant was removed, and 3 mL of a new culture solution at 37° C. was added to suspend the culture solution, and centrifuged again under the same conditions. After centrifugation, the supernatant was removed, and 2 mL of the above-mentioned culture solution at 37° C. was added to the precipitate and suspended. Then, 2 mL of the suspension was added to each well to which 1 mL of a new culture medium had been added in advance. Thereafter, 30 μL of a new culture medium was added (hereinafter, this step is referred to as a “culture medium addition step”). After incubation at 37° C. in a 5% CO2 for 30 minutes, the culture supernatants of the wells were collected in 15-mL tubes, centrifuged at 1,000 rpm for 3 minutes, and the supernatants were removed by an aspirator. In addition, to the wells of the 6-well plate from which the culture supernatant was removed, 3 mL of cooled PBS (Phosphate buffered saline)/Phosphatase Inhibitors solution was added, the cells were removed by pipetting, and the cell suspension was added to the 15-mL tubes. The 15 mL tube was centrifuged at 1,000 rpm for 3 minutes, the supernatant was removed by an aspirator, and 0.5 mL of the cooled PB S/Phosphatase Inhibitors solution was added to the 15 mL tube and suspended to prepare a cell suspension. […]
The amount of NF-κB in the nucleoprotein was confirmed by measuring the absorbance using the Trans AM NF KB p65 kit (manufactured by Active Motif).

PPARγ gene = PPARγ gene expression in THP-1 cells by CAGE method (Example 8-2); type: cell-based, human; conditions: 3 hours
Protocol: The same culture medium as in Example 8-1(2) was added to the THP-1 cells to prepare solutions in which the concentrations of the cells were 5×10^5 cells/mL. The expression level of the PPARγ gene in this solution was measured by the CAGE method and found to be 3.97 TPM (Tags Per Million). After the measurement, the cell solution was divided into the following four groups. That is, there are four groups: a group in which a solution of the purified product is added to the cell solution so as to have a final concentration of 1 μg/mL (Example 8-2A), a group in which a solution of the purified product is added to the cell solution so as to have a final concentration of 10 μg/mL (Example 8-2B), a group in which nothing is added to the cell solution (Comparative Example 8-2A), and a group in which a LPSp solution is added to the cell solution so as to have a final concentration of 100 ng/mL (Comparative Example 8-2B). After culturing the four groups for 3 hours, the expression level of the PPARγ gene was measured by the CAGE method. FIG. 27 is a graph showing the expression levels of the PPARγ genes. In FIG. 27, the horizontal axis represents the incubation time, and the vertical axis represents the expression amount (TPM) of the PPARγ gene. […] In contrast, in Comparative Example 8-2A, the expression level of the PPARγ gene decreased slightly from 3.97 TPM to 3.89 TPM during 3 hours, and in Comparative Example 8-2B, the expression level of the PPARγ gene increased from 3.97 TPM to 4.31 TPM during 3 hours, but the degree of the increase was not significant.

CCCCCC/C=C/CCCCCC(=O)OC(CCCCCCCCCCC)CC(=O)NC1C(OCC2OC(OP(=O)(O)O)C(NC(=O)CC(=O)CCCCCCCCCCC)C(OC(=O)CC(O)CCCCCCC)C2O)OC(COC2(C(=O)O)CC(OC3(C(=O)O)CC(OC4OC(C(=O)O)C(OC5OC(CO)C(O)C(O)C5O)C(O)C4O)C(O)C(C(O)CO)O3)C(OC3OC(COP(=O)(O)O)C(OC4OC(CO)C(O)C(O)C4O)C(O)C3O)C(C(O)CO)O2)C(OP(=O)(O)O)C1OC(=O)CC(O)CCCCCCC (stereo not drawn) [Formula (A1)]
Equivalent results were obtained: concentration of IL-8 in culture supernatant (human TLR4) | amount of NF-κB in the nucleoprotein (absorbance) (NF-κB) | effect on expression of the PPARγ gene (in words) (PPARγ gene)

CCCCCC/C=C/CCCCCC(=O)OC(CCCCCCCCCCC)CC(=O)NC1C(OCC2OC(OP(=O)(O)O)C(NC(=O)CC(=O)CCCCCCCCCCC)C(OC(=O)CC(O)CCCCCCC)C2O)OC(COC2(C(=O)O)CC(OC3(C(=O)O)CC(OC4OC(C(=O)O)C(OC5OC(CO)C(O)C(O)C5O)C(O)C4O)C(O)C(C(O)CO)O3)C(OC3OC(CO)C(O)C(O)C3O)C(C(O)CO)O2)C(OP(=O)(O)O)C1OC(=O)CC(O)CCCCCCC (stereo not drawn) [Formula (A2)]
Equivalent results were obtained: concentration of IL-8 in culture supernatant (human TLR4) | amount of NF-κB in the nucleoprotein (absorbance) (NF-κB) | effect on expression of the PPARγ gene (in words) (PPARγ gene)

CCCCCC/C=C/CCCCCC(=O)OC(CCCCCCCCCCC)CC(=O)NC1C(OCC2OC(OP(=O)(O)O)C(NC(=O)CC(=O)CCCCCCCCCCC)C(OC(=O)CC(O)CCCCCCC)C2O)OC(COC2(C(=O)O)CC(OC3(C(=O)O)CC(O)C(OC4OC(C(=O)O)C(OC5OC(CO)C(O)C(O)C5O)C(O)C4O)C(C(O)CO)O3)C(OC3OC(COP(=O)(O)O)C(OC4OC(CO)C(O)C(O)C4O)C(O)C3O)C(C(O)CO)O2)C(OP(=O)(O)O)C1OC(=O)CC(O)CCCCCCC (stereo not drawn) [Formula (B1)]
Equivalent results were obtained: concentration of IL-8 in culture supernatant (human TLR4) | amount of NF-κB in the nucleoprotein (absorbance) (NF-κB) | effect on expression of the PPARγ gene (in words) (PPARγ gene)

CCCCCC/C=C/CCCCCC(=O)OC(CCCCCCCCCCC)CC(=O)NC1C(OCC2OC(OP(=O)(O)O)C(NC(=O)CC(=O)CCCCCCCCCCC)C(OC(=O)CC(O)CCCCCCC)C2O)OC(COC2(C(=O)O)CC(OC3(C(=O)O)CC(O)C(OC4OC(C(=O)O)C(OC5OC(CO)C(O)C(O)C5O)C(O)C4O)C(C(O)CO)O3)C(OC3OC(CO)C(O)C(O)C3O)C(C(O)CO)O2)C(OP(=O)(O)O)C1OC(=O)CC(O)CCCCCCC (stereo not drawn) [Formula (B2)]
Equivalent results were obtained: concentration of IL-8 in culture supernatant (human TLR4) | amount of NF-κB in the nucleoprotein (absorbance) (NF-κB) | effect on expression of the PPARγ gene (in words) (PPARγ gene)
